Source: ChEMBL document CHEMBL3259781 (J Med Chem, 2014)
≈ marks a conversion by molar mass, not a printed value. Where “and” joins values, the source holds several entries; their conditions need not be identical. Identical values can stand only once.

How the values were obtained:
Adenosine receptor A2a [1] = molecular target: T1, Adenosine receptor A2a (Rattus norvegicus, UniProt P30543); assay: Binding affinity to adenosine receptor A2a in rat striatum; assay type: tissue-based
Adenosine receptor A3 [2] = molecular target: T2, Adenosine receptor A3 (Homo sapiens, UniProt P0DMS8)
T2 sequence (P0DMS8 whole entry): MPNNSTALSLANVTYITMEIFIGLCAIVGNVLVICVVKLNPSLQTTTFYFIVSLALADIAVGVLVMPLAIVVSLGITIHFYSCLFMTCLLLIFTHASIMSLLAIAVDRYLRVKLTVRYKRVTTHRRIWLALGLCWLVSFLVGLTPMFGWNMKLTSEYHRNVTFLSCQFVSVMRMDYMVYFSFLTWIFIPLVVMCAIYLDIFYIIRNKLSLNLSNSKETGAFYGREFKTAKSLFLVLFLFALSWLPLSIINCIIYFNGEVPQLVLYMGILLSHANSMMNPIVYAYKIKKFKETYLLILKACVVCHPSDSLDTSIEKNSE

Adenosine receptor A3 [3] = molecular target: T3, Adenosine receptor A3 (Rattus norvegicus, UniProt P28647); assay: Inhibition of rat recombinant adenosine A3 receptor
T3 sequence (P28647 whole entry): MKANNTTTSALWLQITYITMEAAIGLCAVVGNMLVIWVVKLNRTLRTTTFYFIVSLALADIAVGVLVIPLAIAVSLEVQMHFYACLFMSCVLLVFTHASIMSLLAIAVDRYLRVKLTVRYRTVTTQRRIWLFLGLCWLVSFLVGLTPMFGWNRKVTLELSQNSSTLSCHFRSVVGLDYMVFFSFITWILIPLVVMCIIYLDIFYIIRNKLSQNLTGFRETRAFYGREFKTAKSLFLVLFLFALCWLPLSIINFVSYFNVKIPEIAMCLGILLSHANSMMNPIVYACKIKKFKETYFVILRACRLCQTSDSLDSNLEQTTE

Adenosine receptor A2b = molecular target: T4, Adenosine receptor A2b (Homo sapiens, UniProt P29275)
T4 sequence (P29275 whole entry): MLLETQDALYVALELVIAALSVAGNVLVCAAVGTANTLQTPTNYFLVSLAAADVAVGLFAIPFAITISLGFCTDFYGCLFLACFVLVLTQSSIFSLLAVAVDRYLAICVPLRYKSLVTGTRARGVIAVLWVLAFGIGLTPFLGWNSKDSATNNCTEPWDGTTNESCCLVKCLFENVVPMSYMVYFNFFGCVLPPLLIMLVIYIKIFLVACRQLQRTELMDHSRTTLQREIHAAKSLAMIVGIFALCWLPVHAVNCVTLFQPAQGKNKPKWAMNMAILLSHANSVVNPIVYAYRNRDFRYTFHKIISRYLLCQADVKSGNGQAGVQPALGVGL

Adenosine receptor A2a [4] = molecular target: T1, Adenosine receptor A2a
Homo sapiens = species: Homo sapiens; assay: Selectivity ratio of Ki for human recombinant adenosine A1 receptor to Ki for human recombinant adenosine receptor A2a
[5] = AUC in rat at 3 mg/kg, po; assay type: ADME, organism-based; parameters: dose 3 mg/kg, route oral; details: plasma
Rattus norvegicus [6] = assay: Anticataleptic activity in rat assessed as inhibition at 1 mg/kg, po after 1 hr; assay type: functional
Rattus norvegicus [7] = assay: Anticataleptic activity in rat assessed as inhibition at 1 mg/kg, po after 4 hrs; assay type: functional
[8] = Ratio of drug level from brain to plasma in rat; assay type: ADME; details: read-out: BPR
Rattus norvegicus [9] = species: Rattus norvegicus; assay: Anticataleptic activity in rat assessed as minimum efficacious dose after 1 hr; assay type: functional; details: read-out: MED
Rattus norvegicus [10] = species: Rattus norvegicus; assay: Anticataleptic activity in rat assessed as minimum efficacious dose after 4 hrs; assay type: functional; details: read-out: MED
Adenosine receptor A2a [11] = molecular target: T5, Adenosine receptor A2a (Homo sapiens, UniProt P29274)
T5 sequence (P29274 whole entry): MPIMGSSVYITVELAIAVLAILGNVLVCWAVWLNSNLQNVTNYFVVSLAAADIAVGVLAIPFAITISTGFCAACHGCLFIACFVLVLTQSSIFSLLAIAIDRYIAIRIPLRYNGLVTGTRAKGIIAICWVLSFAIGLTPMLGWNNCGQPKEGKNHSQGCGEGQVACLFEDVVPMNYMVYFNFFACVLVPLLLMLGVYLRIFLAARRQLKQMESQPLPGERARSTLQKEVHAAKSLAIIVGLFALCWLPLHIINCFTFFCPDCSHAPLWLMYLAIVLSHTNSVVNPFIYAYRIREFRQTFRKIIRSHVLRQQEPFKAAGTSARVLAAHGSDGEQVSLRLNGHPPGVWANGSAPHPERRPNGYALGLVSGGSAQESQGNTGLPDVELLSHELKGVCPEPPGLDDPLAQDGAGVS

Adenosine receptor A1 = molecular target: T6, Adenosine receptor A1 (Homo sapiens, UniProt P30542)
T6 sequence (P30542 whole entry): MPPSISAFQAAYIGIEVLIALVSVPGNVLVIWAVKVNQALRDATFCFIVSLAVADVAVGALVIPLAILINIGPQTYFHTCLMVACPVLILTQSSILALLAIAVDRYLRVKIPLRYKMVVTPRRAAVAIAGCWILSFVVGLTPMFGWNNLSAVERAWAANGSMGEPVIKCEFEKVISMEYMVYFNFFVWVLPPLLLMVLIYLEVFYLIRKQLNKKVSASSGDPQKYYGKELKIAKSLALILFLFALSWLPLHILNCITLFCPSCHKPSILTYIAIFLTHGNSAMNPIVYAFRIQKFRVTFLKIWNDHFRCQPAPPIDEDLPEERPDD

[12] = Plasma clearance in rat; assay type: ADME, organism-based
[13] = Half life in rat; assay type: ADME, organism-based; details: in vivo
[14] = Half life in dog; assay type: ADME, organism-based, Canis lupus familiaris; details: in vivo
[15] = Plasma clearance in dog; assay type: ADME, organism-based, Canis lupus familiaris
[16] = Volume of distribution in rat; assay type: ADME, organism-based; details: in vivo
[17] = Volume of distribution in dog; assay type: ADME, organism-based, Canis lupus familiaris; details: in vivo
Rattus norvegicus [18] = species: Rattus norvegicus; assay: Selectivity ratio of Ki for rat striatal adenosine A1 receptor to Ki for rat recombinant adenosine receptor A2a
Rattus norvegicus [19] = assay: Anticataleptic activity in rat assessed as inhibition of haloperidol-induced catalepsy at 3 mg/kg, po after 30 mins; assay type: functional; details: 0.5 h
[20] = Solubility of the compound at pH 7.4; assay type: physicochemical; details: buffer
Mus musculus = assay: Anticataleptic activity in mouse assessed as inhibition of haloperidol-induced catalepsy at 10 mg/kg, po; assay type: functional
Plasma = assay: Drug level in rat plasma measured per ml at 10 mg/kg, po; assay type: ADME, organism-based; parameters: dose 10 mg/kg, route oral; details: in vivo
Brain = assay: Drug level in rat brain measured per gram at 10 mg/kg, po; assay type: ADME, organism-based; parameters: dose 10 mg/kg, route oral; details: in vivo
[21] = Ratio of drug level from brain to plasma in iv dosed rat after 0.5 hrs; assay type: ADME, organism-based; details: read-out: BPR
Rattus norvegicus [22] = species: Rattus norvegicus; assay: Anticataleptic activity in rat assessed as inhibition of haloperidol-induced catalepsy after 1 hr; assay type: functional
Rattus norvegicus [23] = species: Rattus norvegicus; assay: Anticataleptic activity in rat assessed as inhibition of haloperidol-induced catalepsy after 2 hrs; assay type: functional
Adenosine receptor A2a [24] = molecular target: T5, Adenosine receptor A2a; remark: listed apart in the source
Rattus norvegicus [25] = species: Rattus norvegicus; assay: Systemic vasodilation in rat; assay type: functional

T1 sequence (P30543 whole entry): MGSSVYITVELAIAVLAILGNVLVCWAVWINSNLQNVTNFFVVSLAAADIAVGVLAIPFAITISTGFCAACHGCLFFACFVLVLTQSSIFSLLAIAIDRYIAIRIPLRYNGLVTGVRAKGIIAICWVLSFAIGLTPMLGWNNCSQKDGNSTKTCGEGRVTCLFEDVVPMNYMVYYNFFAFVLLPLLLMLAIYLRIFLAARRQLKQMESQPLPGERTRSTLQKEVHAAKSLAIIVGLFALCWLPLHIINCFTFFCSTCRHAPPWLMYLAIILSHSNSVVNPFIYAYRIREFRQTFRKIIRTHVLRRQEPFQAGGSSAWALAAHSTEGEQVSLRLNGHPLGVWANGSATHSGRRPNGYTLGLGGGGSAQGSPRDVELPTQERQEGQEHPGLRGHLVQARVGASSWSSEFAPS

SMILES: Nc1nc2c(cnn2CCc2ccccc2)c2nc(-c3ccco3)nn12 [SCH-58261]
- Kd (Adenosine receptor A2a [1]): 0.7 nM
- Ki (Adenosine receptor A3 [2]): 1200 nM

SMILES: C#CCn1c(=O)c2c(nc(/C=C/c3cccc(OC)c3)n2C)n(CCCO)c1=O
- Ki (Adenosine receptor A3 [3]): > 10000 nM
- Ki (Adenosine receptor A2b): 2900 nM
- Ki (Adenosine receptor A2a [4]): 5 nM

SMILES: COCCOc1ccc(N2CCN(CCn3ncc4c3nc(N)n3nc(-c5ccco5)nc43)CC2)cc1 [PRELADENANT]
- Ratio Ki (Homo sapiens): > 1660 and 1340
- AUC [5]: 1560 ng·h/mL
- inhibition (INH) (Rattus norvegicus [6]; 1 mg/kg): 77%
- inhibition in vivo at 1 mg/kg (Rattus norvegicus [6]; Rattus norvegicus, po, 1 h): 75%
- inhibition (INH) (Rattus norvegicus [7]; 1 mg/kg): 70%
- inhibition in vivo at 1 mg/kg (Rattus norvegicus [7]; Rattus norvegicus, po, 4 h): 80%
- Kp [8]: 1
- minimal effective dose (Rattus norvegicus [9]): 0.3 mg/kg
- minimal effective dose (Rattus norvegicus [10]): 0.3 mg/kg
- Ki (Adenosine receptor A2b): > 1700 nM
- Ki (Adenosine receptor A2a [11]): 0.6 nM
- Ki (Adenosine receptor A1): > 996 nM
- Ki (Adenosine receptor A3 [2]): > 1000 nM

SMILES: COc1ccc(N2CCOCC2)c2sc(NC(=O)N3CCC(C)(O)CC3)nc12 [TOZADENANT]
- clearance [12]: 11 mL/min/kg
- half-life [13]: 4 h
- half-life [14]: 2.2 h
- clearance [15]: 8 mL/min/kg
- Vd [16]: 1.4 L/kg
- Vd [17]: 1.2 L/kg
- Ki (Adenosine receptor A1): 1350 nM

SMILES: Nc1nc(N2CCN3CCC[C@@H]3C2)cc2nc(-c3ccco3)nn12
- Ratio Ki (Rattus norvegicus [18]): 17
- inhibition in vivo at 3 mg/kg (Rattus norvegicus [19]): > 50%

SMILES: COC1CCN(c2cccc(-c3cc(NC(C)=O)nc(-n4nc(C)cc4C)n3)n2)CC1
- Ratio Ki (Homo sapiens): 193
- solubility [20]: 30 µg/mL (≈ 71.2 µM)
- inhibition in vivo at 10 mg/kg (Mus musculus): 88%
- Cp (Plasma): 150 ng/mL
- Drug uptake (Brain): 560 ng/g
- Ki (Adenosine receptor A2a [11]): 0.4 nM
- Ki (Adenosine receptor A1): 77.2 nM

SMILES: Cc1cc(-c2nnc(N)nc2-c2ccccc2)cc(C(F)(F)F)n1
- Kp at 0.5 h [21]: 3.2
- ED50 (Rattus norvegicus [22]): 0.2 mg/kg
- ED50 (Rattus norvegicus [23]): 0.2 mg/kg
- Ki (Adenosine receptor A1): 31 nM

SMILES: CCn1nnc([C@H]2O[C@@H](n3cnc4c(N)nc(N[C@H](CO)Cc5ccccc5)nc43)[C@H](O)[C@@H]2O)n1 [GW-328267]
- EC50 (Adenosine receptor A2a [24]): 9 nM

SMILES: Nc1nc(N/N=C/C2CCCCC2)nc2c1ncn2[C@@H]1O[C@H](CO)[C@@H](O)[C@H]1O [BINODENOSON]
- ED50 (Rattus norvegicus [25]): 0.31 mg
